The record followed here is patent US20220213052A1, “INHIBITORS OF RNA-BINDING PROTEINS, COMPOSITIONS THEREOF, AND THERAPEUTIC USES THEROF” (The University of North Carolina at Chapel Hill, priority 2019, published 2022).

Read-outs that look alike come from different tables or passages of the source.

Test [1] has as its target T1, RNA-binding protein Lin-28 homolog B (LIN28B) (Homo sapiens, UniProt Q6ZN17).
T1 sequence (Q6ZN17 1-250): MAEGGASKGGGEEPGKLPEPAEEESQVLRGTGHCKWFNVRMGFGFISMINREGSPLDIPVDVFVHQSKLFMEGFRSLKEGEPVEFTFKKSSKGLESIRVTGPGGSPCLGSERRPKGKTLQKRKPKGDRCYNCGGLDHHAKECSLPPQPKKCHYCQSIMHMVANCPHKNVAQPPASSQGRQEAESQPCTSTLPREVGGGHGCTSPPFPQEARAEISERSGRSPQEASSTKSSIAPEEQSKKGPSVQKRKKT
Kind of test: LIN28B FP assay. On the procedure: (§1) With the FP assay of HuR-Msi1ARE binding, the inhibition of the HuR-Msi1ARE interaction by various compounds of the present technology was assessed. Similar FP assays for Musashi 2 (Msi2) and for RNA-binding protein Lin-28 homolog B (LIN28B) were also performed on various compounds of the present technology. The results of such assays for HuR are provided in Table 1 alongside the compound structures as well as ID numbers for ease of reference; the results of such assays for Msi1, Msi2, and LIN28B are provided in Table 2.

A further test addresses Msi1 (Homo sapiens, UniProt O43347). Kind of test: Msi1 FP assay. It counts as binding. On the procedure:
as §1

Test [2] concerns triple-negative breast cancer cell line MDA-MB-231. Kind of test: Cytotoxicity assay (WST-8), MDA-MB-231. It counts as cell-based. The conditions noted are these: Homo sapiens, 96 h incubation. As to the method: The cytotoxicity of various compounds of the present technology in several cancer cell lines (pancreatic cancer cell line MIAPaCa-2, triple-negative breast cancer cell line MDA-MB-231, and colon cancer cell lines HCT116, HCT116 β/W, and RKO) was assessed by a cytotoxicity assay. Cells were seeded in 96-well culture plates (3,000-5,000 cells/well) and treated with titrated compounds in triplicate. After 96 h incubation, cell growth medium was removed and proliferation reagent WST-8 (Sigma) was added to each well and incubated at 37° C. for 1-3 h. Absorbance was then measured with a plate reader at 450 nm with correction at 650 nm. The results were expressed as the percentage of absorbance of treated wells versus that of vehicle control. IC50, the drug concentration causing 50% growth inhibition, was calculated via sigmoid curve fitting using GraphPad Prism 5.0. The results for those compounds tested against MIAPaCa-2 and MDA-MB-231 are provided in Table 1; the results for those compounds tested against colon cancer cell lines HCT116, HCT116 β/W, and RKO are provided in Table 3.
(In general: Tetrazolium assays rely on reduction of a dye to a coloured formazan, in cell work by metabolically active cells.)

For another test, the target named is Musashi 2 (Msi2) (Homo sapiens, UniProt Q96DH6). In words: Msi2 FP assay. In kind it is binding. As to the method: as §1
In test [3] the target is T2, full-length human HuR protein (Homo sapiens, UniProt Q15717).
T2 construct: full-length human HuR protein was produced by the KU COBRE-PSF Protein Purification Group; made in house
In words: FP assay of HuR-Msi1 ARE binding inhibition. The conditions noted are these: HuR-Msi1 ARE interaction; read-out: HuR Ki via FP assay.
Text: A fluorescence polarization (FP)-based binding assay was utilized to assess the inhibition of HuR protein interaction with the ARE site of Msi1 mRNA (“HuR-Msi1^ARE”) by compounds of interest. Briefly, full-length human HuR protein was produced by the KU COBRE-PSF Protein Purification Group and Bcl2, Msi1 and XIAP mRNA sequences (16 nt) were designed based on literature precedent^23,24,31,32. Fluorescein labeled RNAs were purchased from Dharmacon with the following sequences: Msi1 RNA: 5′-[…]-3′-fluorescein; Bcl-2 RNA: 5′-[…]-3′-fluorescein; XIAP RNA: 5′-[…] UGUC-3′-fluorescein, and a 16-nt degenerative RNA with 3′-fluorescein label was used as a negative control.
as §1

Setting [4] is: cell without (RRM1) mark, read-out: Msi2 (Ki).
Setting [5] is: cell marked (RRM1), read-out: Msi2 (Ki) (RRM1).

Chain of Msi1 (O43347 whole entry, species assumed): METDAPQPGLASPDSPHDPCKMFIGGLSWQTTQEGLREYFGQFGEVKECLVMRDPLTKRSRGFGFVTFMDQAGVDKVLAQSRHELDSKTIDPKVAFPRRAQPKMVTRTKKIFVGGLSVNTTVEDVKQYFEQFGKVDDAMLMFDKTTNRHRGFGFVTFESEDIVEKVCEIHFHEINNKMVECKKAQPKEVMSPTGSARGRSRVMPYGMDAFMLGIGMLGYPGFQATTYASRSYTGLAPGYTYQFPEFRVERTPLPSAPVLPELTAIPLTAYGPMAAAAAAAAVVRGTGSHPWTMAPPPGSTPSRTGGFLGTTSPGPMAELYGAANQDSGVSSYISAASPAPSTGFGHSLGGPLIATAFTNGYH
T2 sequence (Q15717 whole entry): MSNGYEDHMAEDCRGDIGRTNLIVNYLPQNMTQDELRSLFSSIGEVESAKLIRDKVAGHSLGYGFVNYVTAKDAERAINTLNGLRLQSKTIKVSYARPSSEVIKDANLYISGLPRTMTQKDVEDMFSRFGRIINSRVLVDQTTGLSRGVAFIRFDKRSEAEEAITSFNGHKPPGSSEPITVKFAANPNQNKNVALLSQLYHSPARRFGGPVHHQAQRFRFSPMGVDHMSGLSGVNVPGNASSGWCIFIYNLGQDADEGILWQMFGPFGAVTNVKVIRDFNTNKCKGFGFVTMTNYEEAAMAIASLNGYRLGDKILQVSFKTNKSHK
Chain of Musashi 2 (Msi2) (Q96DH6 whole entry, species assumed): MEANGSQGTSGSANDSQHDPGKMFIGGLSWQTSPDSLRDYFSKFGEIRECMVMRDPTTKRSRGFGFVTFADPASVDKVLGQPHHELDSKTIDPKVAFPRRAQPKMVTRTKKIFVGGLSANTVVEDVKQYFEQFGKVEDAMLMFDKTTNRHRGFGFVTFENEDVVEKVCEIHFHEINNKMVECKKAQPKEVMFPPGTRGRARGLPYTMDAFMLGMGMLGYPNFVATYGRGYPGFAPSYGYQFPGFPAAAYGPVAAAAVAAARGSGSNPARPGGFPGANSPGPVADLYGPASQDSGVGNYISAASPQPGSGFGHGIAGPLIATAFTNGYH

`CC(C)(C)c1ccc(C(=O)Nc2ccc3sc(CCC(=O)O)cc3c2)cc1` [KH-22A, 3-(5-(4-(tert-Butyl)benzamido)benzo[b]thiophen-2-yl)propanoic acid]: the Ki (in general, the equilibrium dissociation constant of an inhibitor or competing ligand from its target) in test [1] is more than 20 µM; on Msi1, more than 20 µM; on Musashi 2 (Msi2) (setting [4]), more than 20 µM; in test [3] it was 3.83 µM. Moreover, 19.8 µM corresponded to half-maximal inhibition in test [2] (IC50).

For `CC(C)(C)c1ccc(C(=O)Nc2ccc3sc(CCC(N)=O)cc3c2)cc1` [KH-22C, N-(2-(3-amino-3-oxopropyl)benzo[b]thiophen-5-yl)-4-(tert-butyl)benzamide], the Ki in test [1] is more than 20 µM; at Msi1 it was more than 20 µM; on Musashi 2 (Msi2) (setting [4]), more than 20 µM; in test [3], 7 µM. The IC50 (commonly the concentration that gives 50% inhibition) in test [2] amounted to 2.87 µM.

Turning to `CC(C)(C)c1ccc(C(=O)Nc2ccc3sc(CCC(=O)NN)cc3c2)cc1` [KH-22E, 4-(tert-butyl)-N-(2-(3-hydrazinyl-3-oxopropyl)benzo[b]thiophen-5-yl)benzamide], the Ki in test [1] is more than 20 µM; on Msi1, more than 20 µM; at Musashi 2 (Msi2) (setting [4]) it was more than 20 µM; in test [3] it was 1.06 µM. Besides, in test [2], half-maximal inhibition (IC50) was put at 8.56 µM.

With `Cc1ccc(C(=O)Nc2ccc3sc(CCC(=O)NO)cc3c2)cc1` [KH-27, N-(2-(3-(hydroxyamino)-3-oxopropyl)benzo[b]thiophen-5-yl)-4-methylbenzamide], the Ki is more than 20 µM in test [1], more than 20 µM at Msi1, more than 20 µM on Musashi 2 (Msi2) (setting [4]) and 3.72 µM in test [3]. Further, the midpoint of inhibition in test [2], the IC50, lay at 9.34 µM.

For the compound `Cc1ccc(C(=O)Nc2ccc3sc(CCC(=O)O)cc3c2)cc1` [KH-27A, 3-(5-(4-Methylbenzamido)benzo[b]thiophen-2-yl)propanoic acid], the Ki (in test [1]; at Msi1; at Musashi 2 (Msi2) (setting [4]); in test [3]) was more than 20 µM in each case. In test [2], this compound showed an IC50 of more than 100 µM.

Consider `O=C(CCc1cc2cc(NC(=O)c3ccc(C(F)(F)F)cc3)ccc2s1)NO` [KH-29, N-(2-(3-(hydroxyamino)-3-oxopropyl)benzo[b]thiophen-5-yl)-4-(trifluoromethyl)benzamide], for which the Ki in test [1] is more than 20 µM; on Msi1, more than 20 µM; on Musashi 2 (Msi2) (setting [4]), more than 20 µM; in test [3] it was 2.51 µM. Besides, 12.4 µM corresponded to half-maximal inhibition in test [2] (IC50).

For `NNC(=O)CCc1cc2cc(NC(=O)c3ccc(C(F)(F)F)cc3)ccc2s1` [KH-29E], the Ki in test [1] was more than 20 µM; at Msi1 it was more than 20 µM; on Musashi 2 (Msi2) (setting [4]), more than 20 µM; in test [3], 3.32 µM. Also, half-maximal inhibition in test [2] (IC50) required 71.2 µM.

`CC(C)(C)c1cccc(C(=O)Nc2ccc3sc(CCC(=O)NO)cc3c2)c1` [KH-30, 3-(tert-Butyl)-N-(2-(3-(hydroxyamino)-3-oxopropyl)benzo[b]thiophen-5-yl)benzamide]: the Ki in test [1] was more than 20 µM; on Msi1 it was more than 20 µM; at Musashi 2 (Msi2) (setting [4]), more than 20 µM; in test [3] it was 4.98 µM. The compound further had an IC50 in test [2] of 5.51 µM.

Consider `CC(C)(C)c1cccc(C(=O)Nc2ccc3sc(CCC(=O)O)cc3c2)c1` [KH-30A, 3-(5-(3-(tert-butyl)benzamido)benzo[b]thiophen-2-yl)propanoic acid], for which the Ki (in test [1]; at Msi1; on Musashi 2 (Msi2) (setting [4]); in test [3]) was more than 20 µM in each case. Also, in test [2], the IC50 was more than 100 µM.

Consider `CC(C)(C)c1cccc(C(=O)Nc2ccc3sc(CCC(=O)NN)cc3c2)c1` [KH-30E], for which the Ki in test [1] is more than 20 µM; on Msi1, more than 20 µM; at Musashi 2 (Msi2) (setting [4]), more than 20 µM; in test [3], 4.19 µM. For the same compound, in test [2], the IC50 was 22.7 µM.

For `CC(C)(C)c1cccc(C(=O)Nc2ccc3sc(/C=C/C(=O)NO)cc3c2)c1` [KH-31, (E)-3-(tert-Butyl)-N-(2-(3-(hydroxyamino)-3-oxoprop-1-en-1-yl)benzo[b]thiophen-5-yl)benzamide], the Ki in test [1] stood at 3 µM; at Msi1, 3.89 µM; at Musashi 2 (Msi2) (setting [5]), 1.3 µM; in test [3], 0.47 µM. Also, it took 9.74 µM to reach half-maximal inhibition in test [2] (IC50).

As for `CC(C)(C)c1cccc(C(=O)Nc2ccc3sc(/C=C/C(=O)O)cc3c2)c1` [KH-31A, (E)-3-(5-(3-(tert-Butyl)benzamido)benzo[b]thiophen-2-yl)acrylic acid], the Ki in test [1] is more than 20 µM; on Msi1, 4.6 µM; on Musashi 2 (Msi2) (setting [5]) it was 1.36 µM; in test [3], 2.27 µM. The IC50 in test [2] is 95.3 µM.

In the case of `O=C(O)/C=C/c1cc2cc(NC(=O)c3ccc(C(F)(F)F)cc3)ccc2s1` [KH-32A, (E)-3-(5-(4-(Trifluoromethyl)benzamido)benzo[b]thiophen-2-yl)acrylic acid], the inhibition constant Ki in test [1] is more than 20 µM; at Msi1 it was 4.36 µM; at Musashi 2 (Msi2) (setting [5]), 1.68 µM; in test [3], 1.6 µM. Moreover, the IC50 in test [2] was more than 100 µM.

Consider `O=C(/C=C/c1cc2cc(NC(=O)c3ccc(C(F)(F)F)cc3)ccc2s1)NO` [KH-32], for which the Ki was more than 20 µM in test [1], 4.87 µM on Msi1, 2.64 µM on Musashi 2 (Msi2) (setting [5]) and 0.51 µM in test [3]. Moreover, the IC50 in test [2] amounted to 2.62 µM.

For `O=C(O)/C=C/c1cc2cc(NC(=O)c3ccc(S(F)(F)(F)(F)F)cc3)ccc2s1` [KH-33A, (E)-3-(5-(4-(pentafluoro-λ^6-sulfanyl)benzamido)benzo[b]thiophen-2-yl)acrylic acid], the Ki is more than 20 µM in test [1], 2.63 µM on Msi1, 1.03 µM at Musashi 2 (Msi2) (setting [5]) and 1.2 µM in test [3]. In test [2], the IC50 stood at 50.1 µM.

As for `O=C(CCc1cc2cc(NC(=O)c3ccc(S(F)(F)(F)(F)F)cc3)ccc2s1)NO` [KH-34, N-(2-(3-(Hydroxyamino)-3-oxopropyl)benzo[b]thiophen-5-yl)-4-(pentafluoro-X^6-sulfanyl)benzamide], the Ki in test [1] is more than 20 µM; at Msi1, more than 20 µM; at Musashi 2 (Msi2) (setting [4]) it was more than 20 µM; in test [3], 1.53 µM. The compound further displayed an IC50 in test [2] of 3.97 µM.

For `O=C(O)CCc1cc2cc(NC(=O)c3ccc(S(F)(F)(F)(F)F)cc3)ccc2s1` [KH-34A, 3-(5-(4-(pentafluoro-λ^6-sulfanyl)benzamido)benzo[b]thiophen-2-yl)propanoic acid], the Ki in test [1] is more than 20 µM; on Msi1 it was more than 20 µM; on Musashi 2 (Msi2) (setting [4]), more than 20 µM; in test [3], 5.8 µM. In addition, in test [2], the IC50 came to 48 µM.

For the compound `CC(C)c1ccc(C(=O)Nc2ccc3sc(CCC(=O)O)cc3c2)cc1` [KH-37A, 3-(5-(4-Isopropylbenzamido)benzo[b]thiophen-2-yl)propanoic acid], the Ki (in test [1]; at Msi1; on Musashi 2 (Msi2) (setting [4]); in test [3]) was more than 20 µM each time. The IC50 in test [2] is more than 100 µM.

With `CC(C)c1ccc(C(=O)Nc2ccc3sc(CCC(=O)NN)cc3c2)cc1` [KH-37E], the Ki in test [1] is more than 20 µM; on Msi1, more than 20 µM; on Musashi 2 (Msi2) (setting [4]), more than 20 µM; in test [3], 5.18 µM. In test [2], the IC50 was more than 100 µM.

Take `CN(C)c1ccc(C(=O)Nc2ccc3sc(CCC(=O)O)cc3c2)cc1` [KH-38A, 3-(5-(4-(Dimethylamino)benzamido)benzo[b]thiophen-2-yl)propanoic acid]: the Ki (in test [1]; on Msi1; at Musashi 2 (Msi2) (setting [4]); in test [3]) was more than 20 µM in each case. In test [2], this compound had an IC50 of more than 100 µM.

For `CN(C)c1ccc(C(=O)Nc2ccc3sc(CCC(=O)NN)cc3c2)cc1` [KH-38E], the Ki in test [1] was more than 20 µM; at Msi1 it was more than 20 µM; at Musashi 2 (Msi2) (setting [4]) it was more than 20 µM; in test [3], 3.56 µM. In test [2], this compound registered an IC50 of 57.6 µM.
